This is an account of results in US11160826B1, “Cholesterol lowering drugs for the treatment of hepatic encephalopathy” (United States Government as represented by the Department …, priority 2017, dated 2021).

Entries after “also recorded” stand apart in the source; their conditions may differ.

Test [1] has as its system AOM-induced acute liver failure. Particulars: mouse model of acute liver failure, McMillin et al. 2016; cited from earlier work.
Another test deals with Cyp46A1. The test can be described thus: Expression of Cyp46A1 in primary cortical neuronal culture. Format: cell-based, mouse. Particulars: 10 μM with 10 μM DCA, 24 hr.
In a further test the test system is cholesterol. The test can be described thus: Measurement of brain cholesterol (total/free kit, Nile Red, Filipin III staining). Format: in vivo, C57Bl/6 mice. The procedure:
(§1) Acute liver failure and HE was induced using the hepatotoxin azoxymethane (AOM) as previously described (McMillian, M. et al. (2016) Am. J. Pathol. 186(2): 312-23; McMillin, M. et al. Front Cell Neurosci. (2017) 11: 191; McMillin, M. et al. (2014) Journal of Hepatology 6(1): 1260-6; McMillin, M. et al. (2016) J. Neuroinflammation 13(1): 198). Briefly, C57Bl/6 or Cyp7A1−/− mice were injected with AOM (100 mg/kg ip) and placed on heating pads set to 37° C. to ensure normothermia. To reduce serum and cortical bile acid levels, C57Bl/6 mice were fed a diet supplemented with 2% cholestyramine (Dyets Inc.; Bethelhem, Pa.), or the control diet AIN-93G, for 3 days prior to the injection of AOM. […] This same approach was used to infuse 2-hydroxypropyl-β-cyclodextrin (2-HβC; 6 mg/kg/day, MilliporeSigma) to inhibit cholesterol accumulation. The infusion cannulas were implanted using the co-ordinates AP −0.34, ML −1.0, DV −2.0. This surgery was performed 3 days prior to the injection of AOM to allow the mice to recover prior to the onset of acute liver failure to minimize mortality.
Total, free and esterified cholesterol was assessed in brain homogenates using a BioVision Total Cholesterol and Cholesteryl Ester Assay Kit following the instructions from the vendor. The subcellular location of cholesterol was assessed using Nile Red staining (for intracellular cholesterol (Pol, A. et al. (2001) J. Cell Biol. 152(5): 1057-70)) and Filipin III staining (for membrane bound cholesterol (Vanier and Latour (2015) Methods Cell Biol. 126: 357-75)). Briefly, mice were transcardially perfused with ice-cold phosphate buffered saline (PBS), followed by 4% paraformaldehyde (PFA) in PBS. Whole brains were rapidly removed and post-fixed in PFA overnight at 4° C. Brains were cryoprotected in 30% sucrose (in PBS) and embedded in OCT compound. Thirty micrometer sections were cut through the frontal cortex region; sections were rinsed in PBS and further fixed in 4% PFA for 10 minutes at room temperature. Free-floating sections were incubated with Filipin III (0.5 μg/mL in 10% bovine serum albumin/PBS) for 2 hours at room temperature, or with Nile Red (10 μg/mL in PBS) for 30 minutes at room temperature. Sections were washed in PBS, mounted onto microscope slides and imaged using a Bio-Rad Zoe™ Fluorescent Cell Imager (Hercules, Calif.). Field images were quantified for percent-positive area of Nile Red or Filipin III staining using ImageJ software (National Institutes of Health, Bethesda, Md.).

The next test relates to AOM-induced liver damage. The test can be described thus: Assessment of liver damage and function (H&E, plasma ALT, AST). In kind it is in vivo, C57Bl/6 mice. As to conditions: 20 hour post-AOM injection; central (ICV) infusion. Here is the method:
as §1, with “This surgery was performed 3 days prior to the injection of AOM to allow the mice to recover prior to the onset of acute liver failure to minimize mortality.” left out
Liver damage was assessed by H&E staining according to previously published protocols (McMillin, M. et al. (2017) Front Cell Neurosci. 11: 191). […]
Liver function was assessed by measuring plasma alanine aminotransferase (ALT) and aspartate aminotransferase (AST) using the IDEXX Catalyst One machine from IDEXX Laboratories, Inc (Westbrook, […].).

Test [2] concerns AOM-induced acute liver failure. In words: DigiGait ventral plane gait analysis of AOM-treated mice. In kind it is in vivo, C57Bl/6 mice. Particulars: approximately 16 hours after AOM injection. Here is the method: as §1
Starting at 12 hr after injection, mice were monitored at least every 2 hours for body temperature, weight and neurological score as previously described (McMillin, M. et al. Front Cell Neurosci. (2017) 11: 191; McMillin, M. et al. (2016) J. Neuroinflammation 13(1): 198). The neurological score was assessed by an investigator blind to the treatment groups and is a summation of the scores given for the following parameters: pinna reflex, corneal reflex, tail flexion, escape response, righting reflex and gait. […] These paw prints were analyzed using DigiGait Analysis and Imager software (Mouse Specifics Inc, Framingham, Mass., USA) and measures of neuromuscular function were quantified, including the paw angle in fore- and hind limbs (to measure the degree of external rotation), gait symmetry (ratio of forelimb stepping frequency to hindlimb stepping frequency) and the ataxia coefficient for fore and hind limbs (calculated by [maximum stride length−minimum stride length]/average stride length).

Test [3] has the same test system. In words: Neurological score and time to coma in the AOM mouse model of acute liver failure / hepatic encephalopathy. In kind it is in vivo, C57Bl/6 mice. As to conditions: ICV infusion started 3 days prior to AOM; for neurological decline (neurological score): AOM-treated mice (100 mg/kg ip), 100 mg/kg; for time taken to reach hepatic coma: AOM-treated mice. Here is the method:
as §1
Starting at 12 hr after injection, mice were monitored at least every 2 hours for body temperature, weight and neurological score as previously described (McMillin, M. et al. Front Cell Neurosci. (2017) 11: 191; McMillin, M. et al. (2016) J. Neuroinflammation 13(1): 198). The neurological score was assessed by an investigator blind to the treatment groups and is a summation of the scores given for the following parameters: pinna reflex, corneal reflex, tail flexion, escape response, righting reflex and gait. Each parameter was assigned a score between 2 (normal) and 0 (absence of reflexes and presence of severe ataxia), and summed to give a neurological score out of 12. At approximately 16 hours after AOM injection, the gait of these experimental mice was further examined using ventral plane imaging technology (DigiGait, Mouse Specifics Inc, Framingham, Mass., USA) which images the underside of animals walking atop a motorized, transparent treadmill belt thereby generating digital paw prints. These paw prints were analyzed using DigiGait Analysis and Imager software (Mouse Specifics Inc, Framingham, Mass., USA) and measures of neuromuscular function were quantified, including the paw angle in fore- and hind limbs (to measure the degree of external rotation), gait symmetry (ratio of forelimb stepping frequency to hindlimb stepping frequency) and the ataxia coefficient for fore and hind limbs (calculated by [maximum stride length−minimum stride length]/average stride length). […]

In test [4] the test system is models of Niemann-Pick Type C disease. Particulars: Davidson et al. 2009; cited from earlier work.
The mark [5] stands for this setting: AOM-treated mice, coma time point, pretreatment from 3 days prior to AOM.
The mark [6] stands for this setting: listed as 2-hydroxypropyl-cyclodextrin.

Source text for Cyp46A1: Primary cortical neurons were isolated and cultured using methodology previously described (McMillin, M. et al. (2014) Journal of hepatology 61(6): 1260-6). Primary neurons were isolated from P1 mouse pups. Mice were decapitated and whole brains were removed. The cortex was isolated and meninges and dura were removed. Cortical tissue was mechanically disrupted and filtered through a 100 μm filter. Neurons were pelleted by centrifugation at 1400 g. Neurons were suspended in media and plated on 12-well plates with 750,000 cells per well. After 24 hours, cells were washed and media was replaced and supplemented with 2% B27 growth supplement. […] At this point, cells were lysed and used for immunoblot or RTPCR analyses.
RNA was extracted from tissue or primary neurons using an RNeasy Mini Kit (Qiagen, Germantown, Md.) according to the manufacturer's instructions. Synthesis of cDNA was accomplished using a Bio-Rad iScript™ cDNA Synthesis Kit. […]
Specific antibodies against Cyp46A1 and β-actin were used. […] Data are expressed as fold change in fluorescent band intensity of target antibody divided by β-actin or GAPDH, which are used as loading controls. […] Band intensity quantifications were performed using ImageJ software.

Regarding `C[C@H](CCC(=O)O)[C@H]1CC[C@H]2[C@@H]3[C@H](O)C[C@@H]4C[C@H](O)CC[C@]4(C)[C@H]3C[C@H](O)[C@]12C` [cholic acid], the “neurological decline associated with acute liver failure (previous studies)” value in test [1] is “worsened the neurological decline”.
Take `C/C=C1\C(=O)C[C@H]2[C@@H]3CCC4=CC(=O)CC[C@]4(C)[C@H]3CC[C@]12C` [guggulsterone, Guggulsterone]: the “DCA-induced decrease of Cyp46A1 expression in primary neurons” value in the test on Cyp46A1 is “could be prevented by pre-treatment”.
As to 2-hydroxypropyl-β-cyclodextrin [2-HβC], in the test with cholesterol (AOM-treated mice, FIG. 17 legend), the cortex cholesterol accumulation result is on record as “reduced”. In addition, in the test with cholesterol (setting [5]), the “AOM-induced increase in Filipin III staining (membrane-bound cholesterol) in the cortex” value is “attenuated the AOM-induced increase”, the “AOM-induced increase in Nile Red staining (intracellular cholesterol) in the cortex” value was “attenuated the AOM-induced increase”, the “AOM-induced increase in free cholesterol content in the cortex” value was “did prevent the AOM-induced buildup” and the “AOM-induced increase in total cholesterol content in the cortex” value was “did prevent the AOM-induced buildup”. Further, the “basal levels of cholesterol in the cortex” value with cholesterol (vehicle-treated mice, infusion into the brain) is given as “did not decrease”. Further, the “AOM-induced liver damage (H&E staining, ALT, AST)” value in the test on AOM-induced liver damage was “does not have any hepatoprotective effects; also recorded: does not influence liver function”. Further, in test [2], the “ataxia co-efficient of fore and hind limbs” value is recorded as “returned the ataxia co-efficient back to control levels”; the “gait symmetry (ratio of forelimb to hind limb stepping frequency)” value is listed as “returned the gait symmetry to control levels”; the “paw angle of fore and hind limbs (degree of external rotation)” value was “reduced the paw angle of AOM-treated mice to values similar to control”. Besides, in test [3], the “neurological decline (neurological score)” value is reported as “significantly delayed the neurological decline; also recorded: reduces neurological decline” and the “time taken to reach hepatic coma” value is listed as “increased the time taken to reach hepatic coma”. Moreover, in test [3] (setting [6]), the “neurological decline (neurological score)” value is “dramatically delayed the onset of neurological complications” and the “time taken to reach hepatic coma” value was “increased the time it took the mice to reach hepatic coma”. In test [4], the “excessive cholesterol buildup in the brain” value was “prevent excessive cholesterol buildup in the brain”.
